Laboratory results as given in ChEMBL document CHEMBL1201862, “PubChem BioAssay data set” (2004).
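Following 48 hours of exposure in 96-well plates, responses at five concentrations were used to interpolate endpoints linearly. The concentration for 50% growth inhibition is given as GI50.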 The source made the active and inactive calls. Rule as the data show it: active = GI50 up to about 1.1 µM and inactive = higher.

Legend:
Assay in all cases: NCI tumour cell line growth inhibition, 48 h
[1] = test system: MCF7
[2] = test system: IGROV-1
[3] = test system: Malme-3M
[4] = test system: EKVX
[5] = test system: SNB-75
[6] = test system: SW-620
[7] = test system: OVCAR-4
[8] = test system: HOP-62
[9] = test system: SK-OV-3
[10] = test system: PC-3
[11] = test system: MDA-N
[12] = test system: OVCAR-8
[13] = test system: BT-549
[14] = test system: CCRF-CEM
[15] = test system: LOX IMVI
[16] = test system: MDA-MB-231
[17] = test system: TK-10
[18] = test system: A498
[19] = test system: SK-MEL-5
[20] = test system: K562

Compound	GI50 [1]	GI50 [2]	GI50 [3]	GI50 [4]	GI50 [5]	GI50 [6]	GI50 [7]	GI50 [8]	GI50 [9]	GI50 [10]	GI50 [11]	GI50 [12]	GI50 [13]	GI50 [14]	GI50 [15]	GI50 [16]	GI50 [17]	GI50 [18]	GI50 [19]	GI50 [20]
CN(C)c1ccc(/C=N/n2c(-c3ccccc3)nc3ccccc3c2=O)cc1	> 100 µM (inactive)	> 100 µM (inactive)	> 100 µM (inactive)	> 100 µM (inactive)	24.4 µM (inactive)	> 100 µM (inactive)	47.9 µM (inactive)	> 100 µM (inactive)	80.5 µM (inactive)	24.5 µM (inactive)	43.1 µM (inactive)	41.6 µM (inactive)	65.8 µM (inactive)	46.8 µM (inactive)	80.2 µM (inactive)	30 µM (inactive)	81.7 µM (inactive)	> 100 µM (inactive)	33.3 µM (inactive)	–
COC(=O)CN(CC(=O)NCCCBr)C1CCCCC1N(CC(=O)OC)CC(=O)OC (centres undefined)	> 100 µM (inactive)	> 100 µM (inactive)	–	> 100 µM (inactive)	19.1 µM (inactive)	> 100 µM (inactive)	> 100 µM (inactive)	> 100 µM (inactive)	32.3 µM (inactive)	> 100 µM (inactive)	> 100 µM (inactive)	> 100 µM (inactive)	> 100 µM (inactive)	> 100 µM (inactive)	> 100 µM (inactive)	> 100 µM (inactive)	> 100 µM (inactive)	> 100 µM (inactive)	> 100 µM (inactive)	> 100 µM (inactive)
N#Cc1ccccc1NC(=O)C(O)C(O)C(O)C(O)C=O (centres undefined)	> 100 µM (inactive)	> 100 µM (inactive)	> 100 µM (inactive)	> 100 µM (inactive)	> 100 µM (inactive)	> 100 µM (inactive)	> 100 µM (inactive)	–	> 100 µM (inactive)	> 100 µM (inactive)	> 100 µM (inactive)	> 100 µM (inactive)	> 100 µM (inactive)	> 100 µM (inactive)	> 100 µM (inactive)	> 100 µM (inactive)	> 100 µM (inactive)	> 100 µM (inactive)	> 100 µM (inactive)	> 100 µM (inactive)
O=C(O)CCCCCNC(=O)CCC(CN(CC(=O)OCc1ccccc1)CC(=O)OCc1ccccc1)N(CC(=O)OCc1ccccc1)CC(=O)OCc1ccccc1 (centres undefined)	19.4 µM (inactive)	17.6 µM (inactive)	19.2 µM (inactive)	22 µM (inactive)	–	22.1 µM (inactive)	16.9 µM (inactive)	20.1 µM (inactive)	13.3 µM (inactive)	17 µM (inactive)	18.2 µM (inactive)	16.5 µM (inactive)	18.9 µM (inactive)	16 µM (inactive)	19.2 µM (inactive)	19.5 µM (inactive)	16.3 µM (inactive)	17.9 µM (inactive)	17.3 µM (inactive)	12.5 µM (inactive)
CC1=C(C(=O)N[C@@H](Cc2ccccc2)C(=O)O)N2C(=O)[C@@H](NC(=O)[C@@H](N)CC(C)C)[C@H]2SC1	> 100 µM (inactive)	> 100 µM (inactive)	> 100 µM (inactive)	> 100 µM (inactive)	> 100 µM (inactive)	> 100 µM (inactive)	> 100 µM (inactive)	–	–	> 100 µM (inactive)	> 100 µM (inactive)	> 100 µM (inactive)	> 100 µM (inactive)	> 100 µM (inactive)	> 100 µM (inactive)	> 100 µM (inactive)	> 100 µM (inactive)	> 100 µM (inactive)	> 100 µM (inactive)	> 100 µM (inactive)
N=C(N)N/N=C(\c1ccc(Cl)cc1)C1CC1	17.1 µM (inactive)	16.2 µM (inactive)	14.9 µM (inactive)	23.9 µM (inactive)	22.2 µM (inactive)	18.4 µM (inactive)	33 µM (inactive)	19 µM (inactive)	27.5 µM (inactive)	16.2 µM (inactive)	16.1 µM (inactive)	20.7 µM (inactive)	24.6 µM (inactive)	–	16.4 µM (inactive)	18.5 µM (inactive)	16.3 µM (inactive)	14.4 µM (inactive)	15.6 µM (inactive)	34.8 µM (inactive)
O=C1CSC2(CC(/C=C/c3ccccc3Br)=NN2c2cccc(S(=O)(=O)O)c2)N1c1nc2ccccc2s1 (centres undefined)	50.4 µM (inactive)	55.1 µM (inactive)	> 100 µM (inactive)	> 100 µM (inactive)	> 100 µM (inactive)	> 100 µM (inactive)	75.9 µM (inactive)	–	–	> 100 µM (inactive)	> 100 µM (inactive)	> 100 µM (inactive)	> 100 µM (inactive)	30.5 µM (inactive)	> 100 µM (inactive)	> 100 µM (inactive)	45.7 µM (inactive)	> 100 µM (inactive)	76 µM (inactive)	54.8 µM (inactive)
CSC(SC)=C1CC(=O)Nc2ccccc2C1=O	47.6 µM (inactive)	35.9 µM (inactive)	37.4 µM (inactive)	> 100 µM (inactive)	–	–	> 100 µM (inactive)	> 100 µM (inactive)	> 100 µM (inactive)	> 100 µM (inactive)	40.6 µM (inactive)	> 100 µM (inactive)	40.3 µM (inactive)	19.7 µM (inactive)	17.4 µM (inactive)	> 100 µM (inactive)	37 µM (inactive)	> 100 µM (inactive)	51.5 µM (inactive)	27.7 µM (inactive)
Cc1cc(-c2ccc(C(=O)O)[nH]2)on1	39 µM (inactive)	50.4 µM (inactive)	38.2 µM (inactive)	42.1 µM (inactive)	44.3 µM (inactive)	30.1 µM (inactive)	> 100 µM (inactive)	65.2 µM (inactive)	32.6 µM (inactive)	68.5 µM (inactive)	4.91 µM (inactive)	61.4 µM (inactive)	> 100 µM (inactive)	–	–	> 100 µM (inactive)	> 100 µM (inactive)	> 100 µM (inactive)	16.1 µM (inactive)	56 µM (inactive)
O=C1OCC/C1=C/c1ccc(/N=N/c2c(O)ccc3ccccc23)cc1	24.8 µM (inactive)	25.8 µM (inactive)	15.6 µM (inactive)	19.1 µM (inactive)	24.8 µM (inactive)	19.2 µM (inactive)	18.6 µM (inactive)	21.9 µM (inactive)	28.3 µM (inactive)	19.9 µM (inactive)	13.8 µM (inactive)	26.7 µM (inactive)	23.2 µM (inactive)	22.9 µM (inactive)	–	50.2 µM (inactive)	19.9 µM (inactive)	15.1 µM (inactive)	21.9 µM (inactive)	28.6 µM (inactive)
O=C(CSC1=NCCN1)c1ccccc1	> 100 µM (inactive)	> 100 µM (inactive)	> 100 µM (inactive)	> 100 µM (inactive)	> 100 µM (inactive)	> 100 µM (inactive)	> 100 µM (inactive)	> 100 µM (inactive)	> 100 µM (inactive)	> 100 µM (inactive)	> 100 µM (inactive)	> 100 µM (inactive)	> 100 µM (inactive)	–	> 100 µM (inactive)	> 100 µM (inactive)	> 100 µM (inactive)	> 100 µM (inactive)	> 100 µM (inactive)	> 100 µM (inactive)
Nc1ccc(Oc2ccc(C3(c4ccc(Oc5ccc(N)cc5)cc4)C4CC5C6CC7CC5C3C(C7)C6C4)cc2)cc1	7.53 µM (inactive)	> 52.1 µM (inactive)	> 78.3 µM (inactive)	27 µM (inactive)	> 100 µM (inactive)	97.3 µM (inactive)	18.8 µM (inactive)	72.9 µM (inactive)	–	> 45.4 µM (inactive)	14.5 µM (inactive)	4.97 µM (inactive)	> 100 µM (inactive)	2.62 µM (inactive)	6.01 µM (inactive)	23.1 µM (inactive)	> 78 µM (inactive)	4.01 µM (inactive)	52.6 µM (inactive)	16 µM (inactive)
Nc1ccccc1CCCC(=O)O	> 100 µM (inactive)	> 100 µM (inactive)	> 100 µM (inactive)	–	> 100 µM (inactive)	> 100 µM (inactive)	> 100 µM (inactive)	> 100 µM (inactive)	> 100 µM (inactive)	> 100 µM (inactive)	> 100 µM (inactive)	> 100 µM (inactive)	> 100 µM (inactive)	> 100 µM (inactive)	> 100 µM (inactive)	> 100 µM (inactive)	> 100 µM (inactive)	> 100 µM (inactive)	> 100 µM (inactive)	> 100 µM (inactive)
O=c1[nH]c2ccccc2c(=O)n1/N=C\c1ccccc1O	> 100 µM (inactive)	> 100 µM (inactive)	–	22.8 µM (inactive)	36.4 µM (inactive)	> 100 µM (inactive)	–	> 100 µM (inactive)	> 100 µM (inactive)	> 100 µM (inactive)	> 100 µM (inactive)	–	> 100 µM (inactive)	> 100 µM (inactive)	> 100 µM (inactive)	> 100 µM (inactive)	> 100 µM (inactive)	> 100 µM (inactive)	88.3 µM (inactive)	> 100 µM (inactive)
Cc1cc(-c2nc3cc(F)c(F)cc3s2)ccc1N	< 0.0123 µM (active)	–	> 100 µM (inactive)	> 79.8 µM (inactive)	51.9 µM (inactive)	> 60.5 µM (inactive)	60.7 µM (inactive)	39.7 µM (inactive)	> 64 µM (inactive)	> 52.5 µM (inactive)	> 56.6 µM (inactive)	> 45.4 µM (inactive)	> 100 µM (inactive)	> 35.6 µM (inactive)	> 82.4 µM (inactive)	> 100 µM (inactive)	0.0312 µM (active)	> 100 µM (inactive)	64 µM (inactive)	> 42.5 µM (inactive)
